{"source": "paper PMC12396409", "about": "“Screening and hit evaluation of a microbial metabolite library against the pathogenic Plasmodium falciparum and Toxoplasma gondii parasites” (International Journal for Parasitology: Drugs and Drug …, 2025)", "key": {"[1]": {"test_system": "P. falciparum 3D7 parasites", "test": "P. falciparum growth inhibition assay, 1-cycle (72 h treatment), SYBR DNA staining (library screen at 2 μg/mL and dose-response)", "format": "cell-based, Plasmodium falciparum", "settings": "for activity at 2 µg/mL: Plasmodium falciparum"}, "[2]": {"test_system": "T. gondii RH strain (RH-Tub-eYFP) tachyzoites", "test": "microbe, parasite or virus in culture", "format": "cell-based, Toxoplasma gondii", "settings": "for Tg_72h_%Growth_Rep1 / Tg_72h_%Growth_Rep2 / percent parasite growth at 2 µg/mL: 72 h; for percent parasite growth at 2 µg/mL: Toxoplasma gondii"}, "[3]": {"test_system": "P. falciparum 3D7 parasites", "test": "P. falciparum growth inhibition assay, 2-cycle (120 h treatment), delayed-death screen and dose-response", "format": "cell-based, Plasmodium falciparum", "settings": "for activity at 2 µg/mL: Plasmodium falciparum"}, "[4]": {"settings": "P. falciparum 3D7, 72 h, library screen at 2 μg/mL, % growth, replicate 1"}, "[5]": {"settings": "P. falciparum 3D7, 72 h, library screen at 2 μg/mL, % growth, replicate 2"}, "[6]": {"settings": "T. gondii RH, library screen at 2 μg/mL, % growth, replicate 1"}, "[7]": {"settings": "T. gondii RH, library screen at 2 μg/mL, % growth, replicate 2"}, "[8]": {"settings": "P. falciparum 3D7, 120 h, library screen at 2 μg/mL, % growth, replicate 1"}, "[9]": {"settings": "P. falciparum 3D7, 120 h, library screen at 2 μg/mL, % growth, replicate 2"}, "[10]": {"settings": "3D7, P. falciparum, 72 h, screen at 2 μg/mL, replicate 1, read-out: Pf_72h_%Growth_Rep1"}, "[11]": {"settings": "3D7, P. falciparum, 72 h, screen at 2 μg/mL, replicate 2, read-out: Pf_72h_%Growth_Rep2"}, "[12]": {"settings": "3D7, P. falciparum, 120 h, screen at 2 μg/mL, replicate 1, read-out: Pf_120h_%Growth_Rep1"}, "[13]": {"settings": "3D7, P. falciparum, 120 h, screen at 2 μg/mL, replicate 2, read-out: Pf_120h_%Growth_Rep2"}, "[14]": {"settings": "T. gondii, screen at 2 μg/mL, replicate 1, read-out: Tg_72h_%Growth_Rep1"}, "[15]": {"settings": "T. gondii, screen at 2 μg/mL, replicate 2, read-out: Tg_72h_%Growth_Rep2"}, "[16]": {"settings": "3D7, 72 h, P. falciparum, 72 h, screen at 2 μg/mL, replicate 1, read-out: Pf_72h_%Growth_Rep1"}, "[17]": {"settings": "3D7, 72 h, P. falciparum, 72 h, screen at 2 μg/mL, replicate 2, read-out: Pf_72h_%Growth_Rep2"}, "[18]": {"settings": "3D7, 120 h, P. falciparum, 120 h, screen at 2 μg/mL, replicate 1, read-out: Pf_120h_%Growth_Rep1"}, "[19]": {"settings": "3D7, 120 h, P. falciparum, 120 h, screen at 2 μg/mL, replicate 2, read-out: Pf_120h_%Growth_Rep2"}, "[20]": {"settings": "active against the parasite at 2 μg/mL, no anti-tumour (NS-1) or cytotoxic (fibroblast) activity at 5 μg/mL"}}, "note": "Where two headings read alike, the source gives them in different places."}
{"smiles": "COc1ccc(C2CC(=O)c3c(O)cc(OC4OC(COC5OC(C)C(O)C(O)C5O)C(O)C(O)C4O)cc3O2)cc1O", "note": "(centres unmarked) [BIA-H1766]", "values": [{"measurement": "Pf_72h_%Growth_Rep1", "setting": "[1]; [4]", "result": 83.53, "unit": "%"}, {"measurement": "Pf_72h_%Growth_Rep2", "setting": "[1]; [5]", "result": 99.72, "unit": "%"}, {"measurement": "Tg_72h_%Growth_Rep1", "setting": "[2]; [6]", "result": 124.64, "unit": "%"}, {"measurement": "Tg_72h_%Growth_Rep2", "setting": "[2]; [7]", "result": 85.96, "unit": "%"}, {"measurement": "Pf_120h_%Growth_Rep1", "setting": "[3]; [8]", "result": 111.90, "unit": "%"}, {"measurement": "Pf_120h_%Growth_Rep2", "setting": "[3]; [9]", "result": 121.98, "unit": "%"}]}
{"smiles": "CCCCCC(O)C1C(=O)OC(C)C(O)C=CC=CC=CC=CC=C(C)C(O)C(O)C(O)CC(O)CC(O)CC(O)CC(O)CC1O", "note": "(centres unmarked) [BIA-L1613]", "values": [{"measurement": "Pf_72h_%Growth_Rep1", "setting": "[1]; [4]", "result": 78.48, "unit": "%"}, {"measurement": "Pf_72h_%Growth_Rep2", "setting": "[1]; [5]", "result": 58.30, "unit": "%"}, {"measurement": "Tg_72h_%Growth_Rep1", "setting": "[2]; [6]", "result": 108.01, "unit": "%"}, {"measurement": "Tg_72h_%Growth_Rep2", "setting": "[2]; [7]", "result": 85.53, "unit": "%"}, {"measurement": "Pf_120h_%Growth_Rep1", "setting": "[3]; [8]", "result": 95.83, "unit": "%"}, {"measurement": "Pf_120h_%Growth_Rep2", "setting": "[3]; [9]", "result": 112.04, "unit": "%"}]}
{"smiles": "CC[C@H]1OC(=O)C[C@@H](O)[C@H](C)[C@@H](O[C@@H]2O[C@H](C)[C@@H](O)[C@H](N(C)C)[C@H]2O)[C@@H](CCN2CCCCC2)C[C@@H](C)C(=O)/C=C/C(C)=C/[C@@H]1CN1CCCCC1", "note": "[Tildipirosin]", "values": [{"measurement": "activity at 2 µg/mL", "setting": "[1]; [10]", "result": 10.8, "unit": "%"}, {"measurement": "activity at 2 µg/mL", "setting": "[1]; [11]", "result": 5.94, "unit": "%"}, {"measurement": "percent parasite growth at 2 µg/mL", "setting": "[2]; read-out: Tg_72h_%Growth_Rep1", "result": 87.8, "unit": "%"}, {"measurement": "percent parasite growth at 2 µg/mL", "setting": "[2]; read-out: Tg_72h_%Growth_Rep2", "result": 85.6, "unit": "%"}, {"measurement": "activity at 2 µg/mL", "setting": "[3]; [12]", "result": 9.99, "unit": "%"}, {"measurement": "activity at 2 µg/mL", "setting": "[3]; [13]", "result": 11.7, "unit": "%"}]}
{"smiles": "C[C@H]1CCC[C@@H](O)CCCCCc2cc(O)cc(O)c2C(=O)O1", "note": "[Zearalanol, beta-]", "values": [{"measurement": "Pf_72h_%Growth_Rep1", "setting": "[1]; P. falciparum, 72 h, screen at 2 μg/mL, replicate 1", "result": 81.97, "unit": "%"}, {"measurement": "Pf_72h_%Growth_Rep2", "setting": "[1]; P. falciparum, 72 h, screen at 2 μg/mL, replicate 2", "result": 86.14, "unit": "%"}, {"measurement": "Tg_72h_%Growth_Rep1", "setting": "[2]; T. gondii, screen at 2 μg/mL, replicate 1", "result": 150.26, "unit": "%"}, {"measurement": "Tg_72h_%Growth_Rep2", "setting": "[2]; T. gondii, screen at 2 μg/mL, replicate 2", "result": 92.47, "unit": "%"}, {"measurement": "Pf_120h_%Growth_Rep1", "setting": "[3]; P. falciparum, 120 h, screen at 2 μg/mL, replicate 1", "result": 90.97, "unit": "%"}, {"measurement": "Pf_120h_%Growth_Rep2", "setting": "[3]; P. falciparum, 120 h, screen at 2 μg/mL, replicate 2", "result": 85.38, "unit": "%"}]}
{"smiles": "C/C=C/C/C=C/CCC(=O)[C@H]1O[C@H]1C(N)=O", "note": "[Cerulenin]", "values": [{"measurement": "activity at 2 µg/mL", "setting": "[1]; [10]", "result": 86.4, "unit": "%"}, {"measurement": "activity at 2 µg/mL", "setting": "[1]; [11]", "result": 80.4, "unit": "%"}, {"measurement": "percent parasite growth at 2 µg/mL", "setting": "[2]; [14]", "result": 79, "unit": "%"}, {"measurement": "percent parasite growth at 2 µg/mL", "setting": "[2]; [15]", "result": 81.8, "unit": "%"}, {"measurement": "activity at 2 µg/mL", "setting": "[3]; [12]", "result": 137, "unit": "%"}, {"measurement": "activity at 2 µg/mL", "setting": "[3]; [13]", "result": 85.1, "unit": "%"}]}
{"smiles": "CN(C)[C@@H]1C(O)=C(C(N)=O)C(=O)[C@@]2(O)C(O)=C3C(=O)c4c(O)ccc(Cl)c4[C@@](C)(O)[C@H]3C[C@@H]12", "note": "[Chlortetracycline]", "values": [{"measurement": "activity at 2 µg/mL", "setting": "[1]; [16]", "result": 97.7, "unit": "%"}, {"measurement": "activity at 2 µg/mL", "setting": "[1]; [17]", "result": 90.6, "unit": "%"}, {"measurement": "percent parasite growth at 2 µg/mL", "setting": "[2]; [14]", "result": 102, "unit": "%"}, {"measurement": "percent parasite growth at 2 µg/mL", "setting": "[2]; [15]", "result": 83.5, "unit": "%"}, {"measurement": "activity at 2 µg/mL", "setting": "[3]; [18]", "result": 149, "unit": "%"}, {"measurement": "activity at 2 µg/mL", "setting": "[3]; [19]", "result": 97.7, "unit": "%"}]}
{"smiles": "NC(=O)c1cccc2nc3ccccc3nc12", "note": "[BIA-O1527]", "values": [{"measurement": "Pf_72h_%Growth_Rep1", "setting": "[1]; P. falciparum 3D7, 72 h, parasite screen at 2 μg/mL, % growth, replicate 1", "result": 73.74, "unit": "%"}, {"measurement": "Pf_72h_%Growth_Rep2", "setting": "[1]; P. falciparum 3D7, 72 h, parasite screen at 2 μg/mL, % growth, replicate 2", "result": 112.20, "unit": "%"}, {"measurement": "Tg_72h_%Growth_Rep1", "setting": "[2]; T. gondii, parasite screen at 2 μg/mL, % growth, replicate 1", "result": 111.76, "unit": "%"}, {"measurement": "Tg_72h_%Growth_Rep2", "setting": "[2]; T. gondii, parasite screen at 2 μg/mL, % growth, replicate 2", "result": 91.86, "unit": "%"}, {"measurement": "Pf_120h_%Growth_Rep1", "setting": "[3]; P. falciparum 3D7, 120 h, parasite screen at 2 μg/mL, % growth, replicate 1", "result": 104.27, "unit": "%"}, {"measurement": "Pf_120h_%Growth_Rep2", "setting": "[3]; P. falciparum 3D7, 120 h, parasite screen at 2 μg/mL, % growth, replicate 2", "result": 111.59, "unit": "%"}]}
{"smiles": "Nc1ncnc2c1ncn2[C@@H]1O[C@H](C[C@@H](N)CC[C@H](N)C(=O)O)[C@@H](O)[C@H]1O", "note": "[sinefungin, reference compound]", "values": [{"measurement": "activity at 2 µg/mL", "setting": "[1]; 3D7, P. falciparum, 72 h, parasite screen 2 μg/mL, % growth, replicate 1, read-out: Pf_72h_%Growth_Rep1", "result": 17.1, "unit": "%"}, {"measurement": "activity at 2 µg/mL", "setting": "[1]; 3D7, P. falciparum, 72 h, parasite screen 2 μg/mL, % growth, replicate 2, read-out: Pf_72h_%Growth_Rep2", "result": 12.1, "unit": "%"}, {"measurement": "selectivity for P. falciparum in the screens", "setting": "[1]; [20]", "result": "also active"}, {"measurement": "percent parasite growth at 2 µg/mL", "setting": "[2]; T. gondii, parasite screen 2 μg/mL, % growth, replicate 1, read-out: Tg_72h_%Growth_Rep1", "result": 7.22, "unit": "%"}, {"measurement": "percent parasite growth at 2 µg/mL", "setting": "[2]; T. gondii, parasite screen 2 μg/mL, % growth, replicate 2, read-out: Tg_72h_%Growth_Rep2", "result": 12.7, "unit": "%"}, {"measurement": "selectivity for T. gondii in the screens", "setting": "[2]; [20]", "result": "also active"}, {"measurement": "activity at 2 µg/mL", "setting": "[3]; 3D7, P. falciparum, 120 h, parasite screen 2 μg/mL, % growth, replicate 1, read-out: Pf_120h_%Growth_Rep1", "result": 13.4, "unit": "%"}, {"measurement": "activity at 2 µg/mL", "setting": "[3]; 3D7, P. falciparum, 120 h, parasite screen 2 μg/mL, % growth, replicate 2, read-out: Pf_120h_%Growth_Rep2", "result": -3.05, "unit": "%"}]}
{"smiles": "CN(CC[C@H](N)CC(=O)N[C@H]1C=C[C@H](n2ccc(N)nc2=O)O[C@@H]1C(=O)O)C(=N)N", "note": "[Blasticidin S]", "values": [{"measurement": "activity at 2 µg/mL", "setting": "[1]; [16]", "result": 4.31, "unit": "%"}, {"measurement": "activity at 2 µg/mL", "setting": "[1]; [17]", "result": 2.87, "unit": "%"}, {"measurement": "percent parasite growth at 2 µg/mL", "setting": "[2]; [14]", "result": 73.3, "unit": "%"}, {"measurement": "percent parasite growth at 2 µg/mL", "setting": "[2]; [15]", "result": 30, "unit": "%"}, {"measurement": "activity at 2 µg/mL", "setting": "[3]; [18]", "result": 5.52, "unit": "%"}, {"measurement": "activity at 2 µg/mL", "setting": "[3]; [19]", "result": -7.54, "unit": "%"}]}
